Source: patent publication US9630963B2, “Quinolone derivatives as fibroblast growth factor inhibitors” (Principia Biopharma, Inc., priority 2013, dated 2017)
Counter-ions that a name gives are not always drawn.

How the values were obtained:
[1] = biological target: human recombinant FGFR1 (Homo sapiens, UniProt P11362); assay: FGFR family enzymatic activity assay (Caliper-based kinase assay), FGFR1; assay type: biochemical; conditions: FGFR1 0.5 nM, ATP 100 μM, peptide substrate 1 μM, room temperature 3 h
From the text: (§1) A Caliper-based kinase assay (Caliper Life Sciences, Hopkinton, Mass.) was used to measure inhibition of FGFR family (FGFR1, FGFR2, FGFR3, FGFR4) kinase activity of a compound of Formula (I′) or (I). […] This value is presented as the IC50.

[2] = biological target: human recombinant FGFR2 (Homo sapiens, UniProt P21802); assay: FGFR family enzymatic activity assay (Caliper-based kinase assay), FGFR2; assay type: biochemical; conditions: FGFR2 0.1 nM, ATP 75 μM, peptide substrate 1 μM, room temperature 3 h
From the text: as §1

[3] = biological target: human recombinant FGFR3 (Homo sapiens, UniProt P22607); assay: FGFR family enzymatic activity assay (Caliper-based kinase assay), FGFR3; assay type: biochemical; conditions: FGFR3 0.9 nM, ATP 120 μM, peptide substrate 1 μM, room temperature 3 h
From the text: as §1

[4] = biological target: human recombinant FGFR4 (Homo sapiens, UniProt P22455); assay: FGFR family enzymatic activity assay (Caliper-based kinase assay), FGFR4; assay type: biochemical; conditions: FGFR4 2 nM, ATP 250 μM, peptide substrate 1 μM, room temperature 3 h
From the text: as §1

[5] = tested on: SNU-16 cells; assay: Inhibition of FGFR2-dependent cell growth (Cell-titer Glo); assay type: cell-based; conditions: Homo sapiens, SNU16 cells, 72 hrs incubation, cell viability by Cell-titer Glo
Experimental: The cell-based effects of FGFR inhibitors were determined by measuring inhibition of FGFR-dependent cell line growth. […] Percent inhibition of cell growth was calculated as a percentage of untreated cell viability. The percent inhibition was plotted as a function of log compound concentration. The IC50 was then calculated for each compound using Prism software from GraphPad.

human recombinant FGFR4, sequence (P22455 22-802): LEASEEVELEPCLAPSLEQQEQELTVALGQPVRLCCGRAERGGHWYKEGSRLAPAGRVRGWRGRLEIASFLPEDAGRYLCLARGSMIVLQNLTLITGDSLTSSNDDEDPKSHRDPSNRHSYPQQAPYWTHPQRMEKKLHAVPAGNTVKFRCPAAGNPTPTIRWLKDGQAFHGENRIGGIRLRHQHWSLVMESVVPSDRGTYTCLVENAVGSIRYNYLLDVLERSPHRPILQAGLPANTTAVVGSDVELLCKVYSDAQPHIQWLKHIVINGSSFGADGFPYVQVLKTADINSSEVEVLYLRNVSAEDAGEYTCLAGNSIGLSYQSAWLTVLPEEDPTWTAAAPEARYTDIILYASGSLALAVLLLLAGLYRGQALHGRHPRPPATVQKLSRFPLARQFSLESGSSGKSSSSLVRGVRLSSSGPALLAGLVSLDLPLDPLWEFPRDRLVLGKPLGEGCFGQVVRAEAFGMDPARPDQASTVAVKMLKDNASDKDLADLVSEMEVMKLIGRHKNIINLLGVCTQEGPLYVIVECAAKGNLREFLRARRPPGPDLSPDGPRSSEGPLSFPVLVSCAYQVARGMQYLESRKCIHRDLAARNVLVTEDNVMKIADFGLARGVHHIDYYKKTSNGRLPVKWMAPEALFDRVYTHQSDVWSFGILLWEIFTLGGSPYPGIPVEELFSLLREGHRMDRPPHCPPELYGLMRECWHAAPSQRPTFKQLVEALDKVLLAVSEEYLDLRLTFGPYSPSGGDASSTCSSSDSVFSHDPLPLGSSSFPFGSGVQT
human recombinant FGFR3, sequence (P22607 23-806): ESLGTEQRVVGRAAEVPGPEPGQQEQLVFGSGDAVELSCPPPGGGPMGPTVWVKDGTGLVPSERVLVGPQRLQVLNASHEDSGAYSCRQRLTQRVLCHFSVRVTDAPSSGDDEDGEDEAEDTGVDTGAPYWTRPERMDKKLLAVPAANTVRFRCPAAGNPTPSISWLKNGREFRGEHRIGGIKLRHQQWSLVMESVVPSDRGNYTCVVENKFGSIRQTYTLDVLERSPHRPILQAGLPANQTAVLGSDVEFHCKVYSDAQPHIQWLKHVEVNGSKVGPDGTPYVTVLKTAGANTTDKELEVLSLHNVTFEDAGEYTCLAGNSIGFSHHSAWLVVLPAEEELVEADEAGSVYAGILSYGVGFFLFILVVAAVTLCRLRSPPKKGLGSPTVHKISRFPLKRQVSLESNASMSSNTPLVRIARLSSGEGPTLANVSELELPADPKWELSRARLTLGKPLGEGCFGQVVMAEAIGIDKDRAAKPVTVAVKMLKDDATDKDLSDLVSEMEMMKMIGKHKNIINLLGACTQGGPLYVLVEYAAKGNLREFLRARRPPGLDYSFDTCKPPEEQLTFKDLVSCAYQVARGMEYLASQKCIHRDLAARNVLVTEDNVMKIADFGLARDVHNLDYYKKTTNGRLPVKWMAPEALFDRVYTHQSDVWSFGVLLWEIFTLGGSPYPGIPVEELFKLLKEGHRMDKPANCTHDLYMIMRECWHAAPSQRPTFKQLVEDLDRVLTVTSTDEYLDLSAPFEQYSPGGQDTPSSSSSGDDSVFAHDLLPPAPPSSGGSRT
human recombinant FGFR2, sequence (P21802 22-821): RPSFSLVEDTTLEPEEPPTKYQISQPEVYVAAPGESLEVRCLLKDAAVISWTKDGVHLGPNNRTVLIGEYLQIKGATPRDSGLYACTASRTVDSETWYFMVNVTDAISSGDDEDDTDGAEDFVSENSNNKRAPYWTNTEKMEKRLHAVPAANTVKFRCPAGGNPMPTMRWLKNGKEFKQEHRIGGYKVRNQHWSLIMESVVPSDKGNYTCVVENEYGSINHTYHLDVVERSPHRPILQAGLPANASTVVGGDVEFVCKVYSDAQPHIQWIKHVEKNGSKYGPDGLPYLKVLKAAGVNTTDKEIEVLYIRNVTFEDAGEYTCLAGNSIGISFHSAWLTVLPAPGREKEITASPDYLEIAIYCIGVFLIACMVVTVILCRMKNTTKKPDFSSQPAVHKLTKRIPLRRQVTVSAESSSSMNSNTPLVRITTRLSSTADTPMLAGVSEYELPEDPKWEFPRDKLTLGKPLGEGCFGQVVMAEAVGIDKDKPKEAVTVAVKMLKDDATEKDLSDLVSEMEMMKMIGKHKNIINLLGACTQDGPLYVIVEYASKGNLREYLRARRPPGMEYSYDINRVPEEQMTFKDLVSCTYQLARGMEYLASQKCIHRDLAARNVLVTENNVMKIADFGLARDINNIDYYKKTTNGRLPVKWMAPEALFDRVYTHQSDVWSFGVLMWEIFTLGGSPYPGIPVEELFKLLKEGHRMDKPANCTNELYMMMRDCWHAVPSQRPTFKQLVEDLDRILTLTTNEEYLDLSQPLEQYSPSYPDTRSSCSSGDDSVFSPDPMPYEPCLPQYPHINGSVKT
human recombinant FGFR1, sequence (P11362 22-822): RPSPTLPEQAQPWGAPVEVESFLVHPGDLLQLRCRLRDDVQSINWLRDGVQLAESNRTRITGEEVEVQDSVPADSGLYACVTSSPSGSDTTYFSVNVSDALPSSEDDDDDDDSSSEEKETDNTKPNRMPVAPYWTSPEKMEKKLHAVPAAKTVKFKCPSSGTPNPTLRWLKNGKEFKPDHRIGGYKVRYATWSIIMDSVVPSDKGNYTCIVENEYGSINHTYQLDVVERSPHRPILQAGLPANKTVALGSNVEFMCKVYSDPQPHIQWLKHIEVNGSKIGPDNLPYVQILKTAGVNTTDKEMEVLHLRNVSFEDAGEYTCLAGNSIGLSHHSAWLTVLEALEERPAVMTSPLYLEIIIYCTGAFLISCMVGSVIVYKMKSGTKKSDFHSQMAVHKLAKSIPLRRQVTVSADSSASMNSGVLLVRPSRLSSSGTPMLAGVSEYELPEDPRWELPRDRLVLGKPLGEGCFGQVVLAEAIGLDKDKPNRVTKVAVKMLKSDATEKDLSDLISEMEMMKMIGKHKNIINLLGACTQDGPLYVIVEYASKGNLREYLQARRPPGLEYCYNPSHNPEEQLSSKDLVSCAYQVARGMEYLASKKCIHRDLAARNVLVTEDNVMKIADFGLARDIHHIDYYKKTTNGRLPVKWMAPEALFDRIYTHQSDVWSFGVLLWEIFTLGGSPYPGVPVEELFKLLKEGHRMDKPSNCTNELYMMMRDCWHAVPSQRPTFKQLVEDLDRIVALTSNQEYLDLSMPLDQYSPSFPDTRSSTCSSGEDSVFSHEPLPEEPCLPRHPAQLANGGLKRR

`C=CC(=O)Nc1ccc(CCn2c(=O)c(-c3c(Cl)c(OC)cc(OC)c3Cl)cc3cnc(NC)nc32)cc1` [Example 4, N-(4-(2-(6-(2,6-dichloro-3,5-dimethoxyphenyl)-2-(methylamino)-7-oxopyrido[2,3-d]pyrimidin-8(7H)-yl)ethyl)phenyl)acrylamide] was tested, and the IC50 [1] was 1.3 nM, the IC50 [2] was 1.6 nM and the IC50 [3] was 3.1 nM. For the same compound, the IC50 [4] was 10.4 nM and the IC50 [5] was 1.4 nM.
Compound `C=CC(=O)Nc1ccc(CCn2c(=O)c(-c3c(Cl)c(OC)cc(OC)c3Cl)cc3cnc(NCCCCN(CC)CC)nc32)cc1` [Example 5, N-(4-(2-(6-(2,6-dichloro-3,5-dimethoxyphenyl)-2-(4-(diethylamino)butylamino)-7-oxopyrido[2,3-d]pyrimidin-8(7H)-yl)ethyl)phenyl)acrylamide hydrochloride] has an IC50 [1] of 1.1 nM, an IC50 [2] of 1.5 nM and an IC50 [3] of 5.5 nM. The IC50 [4] was 32.4 nM and the IC50 [5] was 5.6 nM.
`C=CC(=O)Nc1cccc(Cn2c(=O)c(-c3c(Cl)c(OC)cc(OC)c3Cl)cc3cnc(NCCCCN(CC)CC)nc32)c1` [Example 6, N-(3-[[6-(2,6-dichloro-3,5-dimethoxyphenyl)-2-[[4-(diethylamino)butyl]-amino]-7-oxo-7H,8H-pyrido[2,3-d]pyrimidin-8-yl]methyl]phenyl)acrylamide] showed an IC50 [1] of 1.3 nM, an IC50 [2] of 1 nM and an IC50 [3] of 3.1 nM. It also gave an IC50 [4] of 33.2 nM.
Work on `C=CC(=O)Nc1ccc(CCn2c(=O)c(-c3c(Cl)c(OC)cc(OC)c3Cl)cc3cnc(NC)nc32)nc1` [Example 38, N-(6-(2-(6-(2,6-dichloro-3,5-dimethoxyphenyl)-2-(methylamino)-7-oxopyrido[2,3-d]pyrimidin-8(7H)-yl)ethyl)pyridin-3-yl)acrylamide] yielded an IC50 [1] of 1.2 nM, an IC50 [2] of 2 nM and an IC50 [3] of 3.3 nM. It also gave an IC50 [4] of 6.3 nM and an IC50 [5] of 2.5 nM.
With `C=CC(=O)Nc1ccc(CCn2c(=O)c(-c3cc(OC)cc(OC)c3Cl)cc3cnc(NCCN4CCOCC4)nc32)nc1` [Example 39, N-(6-(2-(6-(2-chloro-3,5-dimethoxyphenyl)-2-((2-morpholinoethyl)amino)-7-oxopyrido[2,3-d]pyrimidin-8(7H)-yl)ethyl)pyridin-3-yl)acrylamide] the IC50 [1] was 0.9 nM, the IC50 [2] was 5.5 nM and the IC50 [3] was 5.4 nM. The IC50 [4] was 42 nM and the IC50 [5] was 1.2 nM.
In the case of `C=CC(=O)Nc1ccc(CCn2c(=O)c(-c3cc(OC)cc(OC)c3F)cc3cnc(NCCN4CCOCC4)nc32)cc1` [Example 43, N-(4-(2-(6-(2-fluoro-3,5-dimethoxyphenyl)-2-((2-morpholinoethyl)amino)-7-oxopyrido[2,3-d]pyrimidin-8(7H)-yl)ethyl)phenyl)acrylamide], the IC50 [1] is reported as 2 nM, the IC50 [2] is reported as 2.6 nM and the IC50 [3] is reported as 9.6 nM. The IC50 [4] was 71 nM and the IC50 [5] was 3.7 nM.
`C=CC(=O)Nc1ccc(CCn2c(=O)c(-c3c(Cl)c(OC)cc(OC)c3Cl)cc3cnc(NCCN4CCOCC4)nc32)cc1` [Example 44, N-(4-(2-(6-(2,6-dichloro-3,5-dimethoxyphenyl)-2-((2-morpholinoethyl)amino)-7-oxopyrido[2,3-d]pyrimidin-8(7H)-yl)ethyl)phenyl)acrylamide] was tested, and the IC50 [1] was 1 nM, the IC50 [2] was 2.5 nM and the IC50 [3] was 4 nM. For the same compound, the IC50 [4] was 14 nM and the IC50 [5] was 3.1 nM.
With `C=CC(=O)Nc1ccc(CCn2c(=O)c(-c3c(Cl)c(OC)cc(OC)c3Cl)cc3cnc(NCCN4CCOCC4)nc32)nc1` [Example 51, N-(6-(2-(6-(2,6-dichloro-3,5-dimethoxyphenyl)-2-(2-morpholinoethylamino)-7-oxopyrido[2,3-d]pyrimidin-8(7H)-yl)ethyl)pyridin-3-yl)acrylamide] the IC50 [1] was 1.8 nM, the IC50 [2] was 4.2 nM and the IC50 [3] was 5.4 nM. The IC50 [4] was 12.8 nM and the IC50 [5] was 2.4 nM.
Work on `C=CC(=O)Nc1ccc(CCn2c(=O)c(-c3cc(OC)cc(OC)c3Cl)cc3cnc(NC(C)(C)CO)nc32)cc1` [Example 61, N-(4-(2-(6-(2-chloro-3,5-dimethoxyphenyl)-2-((1-hydroxy-2-methylpropan-2-yl)-amino)-7-oxopyrido[2,3-d]pyrimidin-8(7H)-yl)ethyl)phenyl)acrylamide] yielded an IC50 [1] of 1.5 nM, an IC50 [2] of 3.4 nM and an IC50 [3] of 9.2 nM. For the same compound, the IC50 [4] was 64.4 nM and the IC50 [5] was 6.8 nM.
`C=CC(=O)Nc1ccc(CCn2c(=O)c(-c3c(Cl)c(OC)cc(OC)c3Cl)cc3cnc(NC4CCN(C)CC4)nc32)cc1` [Example 62, N-(4-(2-(6-(2,6-dichloro-3,5-dimethoxyphenyl)-2-((1-methylpiperidin-4-yl)amino)-7-oxopyrido[2,3-d]pyrimidin-8(7H)-yl)ethyl)phenyl)acrylamide] was tested, and the IC50 [1] was 0.7 nM, the IC50 [2] was 2 nM and the IC50 [3] was 9.9 nM. The IC50 [4] was 54.1 nM and the IC50 [5] was 2.1 nM.
Compound `C=CC(=O)Nc1ccc(CCn2c(=O)c(-c3c(Cl)c(OC)cc(OC)c3Cl)cc3cnc(NCC(O)CO)nc32)cc1` (stereo not drawn) [Example 63, N-(4-(2-(6-(2,6-dichloro-3,5-dimethoxyphenyl)-2-((2,3-dihydroxypropyl)amino)-7-oxopyrido[2,3-d]pyrimidin-8(7H)-yl)ethyl)phenyl)acrylamide] has an IC50 [1] of 0.7 nM, an IC50 [2] of 0.9 nM and an IC50 [3] of 3.2 nM. For the same compound, the IC50 [4] was 9.7 nM and the IC50 [5] was 3.1 nM.
In the case of `C=CC(=O)Nc1ccc(CCn2c(=O)c(-c3c(Cl)c(OC)cc(OC)c3Cl)cc3cnc(NCC(C)(C)O)nc32)cc1` [Example 64, N-(4-(2-(6-(2,6-dichloro-3,5-dimethoxyphenyl)-2-((2-hydroxy-2-methylpropyl)-amino)-7-oxopyrido[2,3-d]pyrimidin-8(7H)-yl)ethyl)phenyl)acrylamide], the IC50 [1] is reported as 0.5 nM, the IC50 [2] is reported as 2.2 nM and the IC50 [3] is reported as 5.5 nM. It also gave an IC50 [4] of 19.9 nM and an IC50 [5] of 3.2 nM.
`C=CC(=O)Nc1ccc(CCn2c(=O)c(-c3c(Cl)c(OC)cc(OC)c3Cl)cc3cnc(NCCO)nc32)cc1` [Example 65, N-(4-(2-(6-(2,6-dichloro-3,5-dimethoxyphenyl)-2-((2-hydroxyethyl)amino)-7-oxopyrido[2,3-d]pyrimidin-8(7H)-yl)ethyl)phenyl)acrylamide] gave an IC50 [1] of 0.6 nM, an IC50 [2] of 1.7 nM and an IC50 [3] of 4.6 nM. The IC50 [4] was 13.8 nM and the IC50 [5] was 3 nM.
`C=CC(=O)Nc1ccc(CCn2c(=O)c(-c3cc(OC)cc(OC)c3Cl)cc3cnc(NCCN4CCN(CC(C)(C)O)CC4)nc32)cc1` [Example 68, N-(4-(2-(6-(2-chloro-3,5-dimethoxyphenyl)-2-((2-(4-(2-hydroxy-2-methylpropyl)-piperazin-1-yl)ethyl)amino)-7-oxopyrido[2,3-d]pyrimidin-8(7H)-yl)ethyl)phenyl)acrylamide] gave an IC50 [1] of 0.7 nM, an IC50 [2] of 1.6 nM and an IC50 [3] of 8.1 nM. The IC50 [4] was 53.8 nM and the IC50 [5] was 3.1 nM.
`C=CC(=O)Nc1ccc(CCn2c(=O)c(-c3cc(OC)cc(OC)c3Cl)cc3cnc(NCC4CCN(C)CC4)nc32)cc1` [Example 71, N-(4-(2-(6-(2-chloro-3,5-dimethoxyphenyl)-2-(((1-methylpiperidin-4-yl)methyl)-amino)-7-oxopyrido[2,3-d]pyrimidin-8(7H)-yl)ethyl)phenyl)acrylamide] showed an IC50 [1] of 1 nM, an IC50 [2] of 1.3 nM and an IC50 [3] of 5.9 nM. For the same compound, the IC50 [4] was 95.8 nM and the IC50 [5] was 4.9 nM.
Compound `C=CC(=O)Nc1ccc(CCn2c(=O)c(-c3c(Cl)c(OC)cc(OC)c3Cl)cc3cnc(NCC4CCN(C)CC4)nc32)cc1` [Example 75, N-(4-(2-(6-(2,6-dichloro-3,5-dimethoxyphenyl)-2-(((1-methylpiperidin-4-yl)methyl)-amino)-7-oxopyrido[2,3-d]pyrimidin-8(7H)-yl)ethyl)phenyl)acrylamide] has an IC50 [1] of 0.4 nM, an IC50 [2] of 0.6 nM and an IC50 [3] of 3.3 nM. The IC50 [4] was 14.7 nM and the IC50 [5] was 2.2 nM.
`C=CC(=O)Nc1ccc(CCn2c(=O)c(-c3c(Cl)c(OC)cc(OC)c3Cl)cc3cnc(NC(CO)CO)nc32)cc1` [Example 76, N-(4-(2-(6-(2,6-dichloro-3,5-dimethoxyphenyl)-2-((1,3-dihydroxypropan-2-yl)-amino)-7-oxopyrido[2,3-d]pyrimidin-8(7H)-yl)ethyl)phenyl)acrylamide] was tested, and the IC50 [1] was 0.8 nM, the IC50 [2] was 1.6 nM and the IC50 [3] was 6.7 nM. The IC50 [4] was 9.6 nM and the IC50 [5] was 7.4 nM.
